Where a name gives a salt, the structure may show the parent alone.
What was measured:
Test in all cases: normalized area under the dose-response curve (viability relative to DMSO control) (fraction); higher = less sensitive (more viable cells)
Details in all cases: exposure time not given
JJN3 (cancer type: MM) = tested on: JJN3 (cancer type: MM)
Procedure: (§1)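 25 myeloma and 15 non-Hodgkin lymphoma cell lines were exposed to each of 76 drugs as 7-point log dilutions (0.01 nM–10 µM) in duplicate. Viability was read with CellTiter-Glo and normalised to DMSO (0.1%) and staurosporine (10 µM) plate controls. Normalised AUC was calculated by the trapezoidal method relative to the negative control.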

[1] = tested on: OCI-LY1 (cancer type: DLBCL)
Procedure: as §1

KMS18 (cancer type: MM) = tested on: KMS18 (cancer type: MM)
Procedure: as §1

[2] = tested on: Karpas-299 (cancer type: TCL)
Procedure: as §1

[3] = tested on: OCI-MY7 (cancer type: MM)
Procedure: as §1

MM1.S (cancer type: MM) = tested on: MM1.S (cancer type: MM)
Procedure: as §1

My-La (cancer type: TCL) = tested on: My-La (cancer type: TCL)
Procedure: as §1

XG2 (cancer type: MM) = tested on: XG2 (cancer type: MM)
Procedure: as §1

KMS11 (cancer type: MM) = tested on: KMS11 (cancer type: MM)
Procedure: as §1

EJM (cancer type: MM) = tested on: EJM (cancer type: MM)
Procedure: as §1

U266 (cancer type: MM) = tested on: U266 (cancer type: MM)
Procedure: as §1

[4] = tested on: KMS28BM (cancer type: MM)
Procedure: as §1

[5] = tested on: SU-DHL6 (cancer type: DLBCL)
Procedure: as §1

[6] = tested on: OCI-MY5/Vec (cancer type: MM)
Procedure: as §1

[7] = tested on: KMS28PE (cancer type: MM)
Procedure: as §1

[8] = tested on: OCI-MY5/CRBN (cancer type: MM)
Procedure: as §1

[9] = tested on: KMS12PE (cancer type: MM)
Procedure: as §1

FR4 (cancer type: MM) = tested on: FR4 (cancer type: MM)
Procedure: as §1

Se-Ax (cancer type: TCL) = tested on: Se-Ax (cancer type: TCL)
Procedure: as §1

[10] = tested on: SR-786 (cancer type: TCL)
Procedure: as §1

[11] = tested on: HuT 78 (cancer type: TCL)
Procedure: as §1

L363 (cancer type: MM) = tested on: L363 (cancer type: MM)
Procedure: as §1

KMS34 (cancer type: MM) = tested on: KMS34 (cancer type: MM)
Procedure: as §1

[12] = tested on: SU-DHL2 (cancer type: DLBCL)
Procedure: as §1

[13] = tested on: RPMI 8226 (cancer type: MM)
Procedure: as §1

[14] = tested on: OCI-MY5 (cancer type: MM)
Procedure: as §1

[15] = tested on: OCI-LY3 (cancer type: DLBCL)
Procedure: as §1

AMO1 (cancer type: MM) = tested on: AMO1 (cancer type: MM)
Procedure: as §1

OPM2 (cancer type: MM) = tested on: OPM2 (cancer type: MM)
Procedure: as §1

MM1.R (cancer type: MM) = tested on: MM1.R (cancer type: MM)
Procedure: as §1

KMS26 (cancer type: MM) = tested on: KMS26 (cancer type: MM)
Procedure: as §1

[16] = tested on: Mino (cancer type: Mantle)
Procedure: as §1

[17] = tested on: NCI-H929 (cancer type: MM)
Procedure: as §1

LP1 (cancer type: MM) = tested on: LP1 (cancer type: MM)
Procedure: as §1

[18] = tested on: JeKo-1 (cancer type: Mantle)
Procedure: as §1

SKMM2 (cancer type: MM) = tested on: SKMM2 (cancer type: MM)
Procedure: as §1

[19] = tested on: OCI-LY19 (cancer type: DLBCL)
Procedure: as §1

[20] = tested on: JVM2 (cancer type: Mantle)
Procedure: as §1

[21] = tested on: Granta-519 (cancer type: Mantle)
Procedure: as §1

[22] = tested on: SU-DHL1 (cancer type: TCL)
Procedure: as §1

Row | Compound | normalized area under the dose-response curve (JJN3 (cancer type: MM)) | normalized area under the dose-response curve [1] | normalized area under the dose-response curve (KMS18 (cancer type: MM)) | normalized area under the dose-response curve [2] | normalized area under the dose-response curve [3] | normalized area under the dose-response curve (MM1.S (cancer type: MM)) | normalized area under the dose-response curve (My-La (cancer type: TCL)) | normalized area under the dose-response curve (XG2 (cancer type: MM)) | normalized area under the dose-response curve (KMS11 (cancer type: MM)) | normalized area under the dose-response curve (EJM (cancer type: MM)) | normalized area under the dose-response curve (U266 (cancer type: MM)) | normalized area under the dose-response curve [4] | normalized area under the dose-response curve [5] | normalized area under the dose-response curve [6] | normalized area under the dose-response curve [7] | normalized area under the dose-response curve [8] | normalized area under the dose-response curve [9] | normalized area under the dose-response curve (FR4 (cancer type: MM)) | normalized area under the dose-response curve (Se-Ax (cancer type: TCL)) | normalized area under the dose-response curve [10] | normalized area under the dose-response curve [11] | normalized area under the dose-response curve (L363 (cancer type: MM)) | normalized area under the dose-response curve (KMS34 (cancer type: MM)) | normalized area under the dose-response curve [12] | normalized area under the dose-response curve [13] | normalized area under the dose-response curve [14] | normalized area under the dose-response curve [15] | normalized area under the dose-response curve (AMO1 (cancer type: MM)) | normalized area under the dose-response curve (OPM2 (cancer type: MM)) | normalized area under the dose-response curve (MM1.R (cancer type: MM)) | normalized area under the dose-response curve (KMS26 (cancer type: MM)) | normalized area under the dose-response curve [16] | normalized area under the dose-response curve [17] | normalized area under the dose-response curve (LP1 (cancer type: MM)) | normalized area under the dose-response curve [18] | normalized area under the dose-response curve (SKMM2 (cancer type: MM)) | normalized area under the dose-response curve [19] | normalized area under the dose-response curve [20] | normalized area under the dose-response curve [21] | normalized area under the dose-response curve [22]
1 | CC(=O)O[C@H]1C(=O)[C@@]2(C)[C@H]([C@H](OC(=O)c3ccccc3)[C@]3(O)C[C@H](OC(=O)[C@H](O)[C@@H](NC(=O)c4ccccc4)c4ccccc4)C(C)=C1C3(C)C)[C@]1(OC(C)=O)CO[C@@H]1C[C@@H]2O [Paclitaxel] | 0.993 | 0.354 | 0.702 | 0.454 | 0.86 | 0.52 | 0.896 | 0.542 | 0.853 | 0.751 | 0.51 | 0.698 | 0.793 | 0.478 | 0.675 | 0.595 | 0.85 | 0.703 | 0.635 | 0.417 | 0.329 | 0.726 | 0.787 | 0.642 | 0.781 | 0.666 | 0.582 | 0.595 | 0.89 | 0.58 | 0.767 | 0.556 | 0.49 | 0.865 | 0.3 | 0.98 | 0.652 | 0.78 | 0.544 | 0.611
2 | CC(=O)c1c(C)c2cnc(Nc3ccc(N4CCNCC4)cn3)nc2n(C2CCCC2)c1=O [Palbociclib] | 0.694 | 0.889 | 0.81 | 0.837 | 0.82 | 0.69 | 0.745 | 0.656 | 0.79 | 0.733 | 0.688 | 0.932 | 0.771 | 0.746 | 0.851 | 0.9 | 0.74 | 0.716 | 0.776 | 0.821 | 0.712 | 0.743 | 0.751 | 0.897 | 0.636 | 0.561 | 0.791 | 0.529 | 0.852 | 0.77 | 0.769 | 0.655 | 0.91 | 0.794 | 0.656 | 0.782 | 0.727 | 0.65 | 0.876 | 0.705
3 | Cc1[nH]c2ccccc2c1CCNCc1ccc(/C=C/C(=O)NO)cc1 [Panobinostat] | 0.56 | 0.167 | 0.618 | 0.187 | 0.47 | 0.25 | 0.422 | 0.483 | 0.659 | 0.188 | 0.389 | 0.567 | 0.501 | 0.173 | 0.52 | 0.13 | 0.42 | 0.594 | 0.244 | 0.374 | 0.249 | 0.613 | 0.333 | 0.286 | 0.682 | 0.297 | 0.322 | 0.444 | 0.812 | 0.35 | 0.454 | 0.303 | 0.16 | 0.592 | 0.284 | 0.698 | 0.36 | 0.347 | 0.424 | 0.23
4 | Cc1ccc(Nc2nccc(N(C)c3ccc4c(C)n(C)nc4c3)n2)cc1S(N)(=O)=O [Pazopanib hydrochloride] | 0.628 | 0.906 | 0.732 | 0.829 | 0.78 | 0.79 | 0.879 | 0.876 | 0.713 | 0.861 | 0.681 | 0.921 | 0.99 | 0.764 | 0.796 | 0.855 | 0.82 | 0.759 | 0.732 | 0.789 | 0.795 | 0.666 | 0.347 | 0.931 | 0.827 | 0.667 | 1 | 0.798 | 0.653 | 0.77 | 0.848 | 0.939 | 0.77 | 0.602 | 0.881 | 0.86 | 0.859 | 0.721 | 0.899 | 0.833

Source: the supplement of paper PMC7214452
